Assay results from ChEMBL document CHEMBL1201862, “PubChem BioAssay data set” (2004).
Calls of active or inactive are those of the source.

Tests used:
[1] = biological target: COUP transcription factor 2 (Homo sapiens, UniProt P24468); test: Luminescence-based cell-based high throughput dose response assay to identify inhibitors of COUP-TFII (NR2F2).; format: functional;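 also: HEK293 cells transiently cotransfected with COUP-TFII expression vector and reporter; luciferase reporter luminescence driven by COUP-TFII from the pX2-168 reporter plasmid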
[2] = biological target: Photoreceptor-specific nuclear receptor (Homo sapiens, UniProt Q9Y5X4); format: functional, cell-based;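 also: CHO-S cells with Gal4-NCOR and VP16-NR2E3 two-hybrid luciferase reporter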
[3] = cytotoxicity in HeLa cells, dose response, cytotoxicity control, cell-based, plate reader, dry powder (AID 651946); format: functional
[4] = Late stage assay provider results from the probe development effort to identify selective inhibitors of heat shock protein 90 (HSP90): Absorbance-based cell proliferation assay in MCF7 cells.; format: functional
[5] = tested on: HEK293; test: cells; conditions: Homo sapiens
[6] = tested on: HEK293; test: cells; conditions: Homo sapiens; remark: listed apart in the source
[7] = Late stage assay provider results from the probe development effort to identify selective inhibitors of heat shock protein 90 (HSP90): Absorbance-based cell proliferation assay in SKBR3 cells.; format: functional; conditions: SK-BR-3
[8] = cells; conditions: HEK293
[9] = cells
[10] = tested on: HEK293; test: HEK293T cell cytotoxicity, dose response, cytotoxicity control, ATP luminescence, cherry-pick samples (AID 687005); format: functional, cell-based; conditions: Homo sapiens;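 also: cells exposed to compound for 48 hours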
[11] = HEK293 Cytotoxicity Assay Measured in Cell-Based System Using Plate Reader - 7071-01_Inhibitor_Dose_CherryPick_Activity_Set2.; format: functional
[12] = tested on: HeLa; test: HeLa cell cytotoxicity, dose response, cytotoxicity control, ATP luminescence, cherry-pick samples (AID 687004); format: functional, cell-based; conditions: Homo sapiens
[13] = biological target: Potassium channel subfamily K member 3 (Homo sapiens, UniProt O14649); test: TASK1 (KCNK3) potassium channel inhibitors, SAR follow-up, CHO cells, FluxOR thallium flux (AID 652212); format: functional
[14] = biological target: Potassium channel subfamily K member 9 (Homo sapiens, UniProt Q9NPC2); test: TASK3 (KCNK9) channel inhibitors, thallium flux, SAR follow-up, selectivity assay for TASK1 inhibitor project, cell-based, FluxOR thallium flux, concentration-response (AID 652211); format: functional;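 also: potency is for inhibitors of the channel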
[15] = HepG2 cell cytotoxicity, dose response, cytotoxicity control, CellTiter-Glo luminescence, cherry-pick, set 2 (AID 743395); format: functional
[16] = cells; remark: listed apart in the source
[17] = biological target: Major prion protein (Homo sapiens, UniProt P04156); format: functional, cell-based
[18] = EDANS-DABCYL fluorescence interference, concentration series, dose response, artefact control for kallikrein-7 zymogen activator project, biochemical, fluorescence intensity, triplicate (AID 720493)
[19] = biological target: Kallikrein-7 (Homo sapiens, UniProt P49862); test: Fluorescence Intensity-based biochemical primary high throughput dose response assay to identify activators of kallikrein-7 (K7) zymogen.
[20] = biological target: Metabotropic glutamate receptor 5 (Rattus norvegicus, UniProt P31424); test: Identification of a glycine sulfonamide based non-MPEP site positive allosteric potentiator (PAM) of mGlu5 (calcium_assay).; format: functional

With `OC[C@@H]1CN(Cc2ccc(-c3ccccc3)cc2)C[C@H](n2cnc3c(NCc4ccncc4)ncnc32)O1` the IC50 [1] was 10 µM (inactive) and the IC50 [2] was 1.52 µM (active).

With `FC(F)(F)Oc1ccccc1CSc1nnc(-c2ccccc2)o1` the AC50 [3] was > 52 µM (inactive).

With `O=C(NCCc1ccc(F)cc1)c1coc(=O)c(Br)c1` the IC50 [4] was 2.1 µM (active), the EC50 [5] was > 59.7 µM (inactive) and the EC50 [6] was > 59.7 µM (inactive). The IC50 [7] was 5.3 µM (active).

With `Cc1ccc2[nH]c3ccccc3c(=O)c2c1` the AC50 [8] was 38.6 µM (active) and the AC50 [9] was 7.34 µM (active).

For `COc1ccc(CN(C)C[C@H]2Oc3ccc(NC(=O)Nc4ccc(F)cc4)cc3CC(=O)N([C@@H](C)CO)C[C@@H]2C)cc1`, the AC50 [10] was 26.3 µM (active), the AC50 [11] was 26.3 µM (active) and the AC50 [12] was > 52 µM (inactive).

In the case of `Cc1cccc(C(=O)Nc2cccc(NC(=O)C3CCCCC3)c2)c1`, the IC50 [13] is reported as 0.017 µM (active) and the IC50 [14] is reported as 11.9 µM (active).

Work on `COc1ccc(NC(=O)c2cc(S(=O)(=O)N3CCOCC3)ccc2C)cc1S(=O)(=O)N1CCOCC1` yielded an AbsAC35_uM [15] of 36.86 µM.

With `Cc1ccc(S(=O)(=O)N2CCCCC2)cc1NC(=O)CSc1ncnc2ccccc12` the IC50 [16] was > 138 µM (inactive) and the IC50 [17] was 5.6 µM (active).

With `CCOC(=O)c1c(N)n(CCN2CCCCC2)c2nc3ccccc3nc12` the EC50 [18] was > 2.58 µM (active) and the EC50 [19] was 3.62 µM (active).

With `CS(=O)(=O)N1c2ccccc2CCC1C(=O)Nc1cccnc1` (stereo not given) the EC50 [20] was 3.62 µM.
